Experimental findings from PubChem BioAssay AID256 (DTP/NCI, 2004) are described below.

This assay has as its system CD2F1 mice, L1210 leukemia ip, survival T/C. The experiment in a line: NCI In Vivo Anticancer Drug Screen. Data for tumor model L1210 Leukemia (intraperitoneal) in CD2F1 (CDF1) mice. The following applies: endpoint: mean survival time, higher = longer survival. Summed up: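 Mice carrying a transplanted tumor received test compound or vehicle alone. The value is the measurement in the treated group divided by that in the vehicle-treated control group.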

[1] abbreviates: dose: 100.0 mg/kg/injection, schedule: Q04DX002 (ip), vehicle: saline with Tween-80.
[2] abbreviates: dose: 100.0 mg/kg/injection, schedule: Q01DX009 (ip), vehicle: saline with Tween-80.
Where [3] appears, read: dose: 200.0 mg/kg/injection, schedule: Q01DX009 (ip), vehicle: saline with Tween-80.

Each structure is given as a SMILES string. Inconclusive results and toxic doses are left out.

With `CC(=O)CC(C)=Nc1cccc(Cl)c1`, the T/C is, setting by setting: under setting [1], 98 % of control; (dose: 200.0 mg/kg/injection, schedule: Q04DX002 (ip), vehicle: saline with Tween-80) 95 % of control; (dose: 400.0 mg/kg/injection, schedule: Q04DX002 (ip), vehicle: saline with Tween-80) 95 % of control.

Regarding `C[N+](C)(C)CCOC(=O)Nc1ccc(C(c2ccc(NC(=O)OCC[N+](C)(C)C)cc2)c2ccc(NC(=O)OCC[N+](C)(C)C)cc2)cc1`, the T/C was 97 % of control (dose: 0.25 mg/kg/injection, schedule: Q04DX003 (ip), vehicle: saline with Tween-80); 96 % of control (dose: 0.5 mg/kg/injection, schedule: Q04DX003 (ip), vehicle: saline with Tween-80); 94 % of control (dose: 1.0 mg/kg/injection, schedule: Q04DX003 (ip), vehicle: saline with Tween-80).

As to `CC(SC(=N)N)C(=N)N` (stereo not given), the T/C was 97 % of control (dose: 25.0 mg/kg/injection, schedule: Q04DX002 (ip), vehicle: saline); 90 % of control (dose: 50.0 mg/kg/injection, schedule: Q04DX002 (ip), vehicle: saline); 105 % of control (dose: 100.0 mg/kg/injection, schedule: Q04DX002 (ip), vehicle: saline).

Turning to `CC(C)[NH-].CC(C)[NH-].O.O.[Cl][Pt+2][Cl]`, the T/C was 118 % of control (dose: 1.5 mg/kg/injection, schedule: Q01DX009 (ip), vehicle: saline); 115 % of control (dose: 1.57 mg/kg/injection, schedule: Q01DX009 (ip), vehicle: saline); 112 % of control (dose: 100.0 mg/kg/injection, schedule: Q01DX001 (ip), vehicle: saline); 90 % of control (dose: 200.0 mg/kg/injection, schedule: Q01DX001 (ip), vehicle: saline).

Take `CC(C)C[P+](c1ccccc1)(c1ccccc1)c1ccccc1`: the T/C (dose: 75.0 mg/kg/injection, schedule: Q01DX001 (ip), vehicle: other) was 96 % of control.

With `C1CC2C3CCC(C3)C2C1` (stereo not given), the T/C was 103 % of control under setting [2]; 102 % of control under setting [3]; 96 % of control (dose: 400.0 mg/kg/injection, schedule: Q01DX009 (ip), vehicle: saline with Tween-80).

For the compound `Cc1ccc(N=C(N)NC#N)cc1C`, the T/C is 95 % of control under setting [2] and 97 % of control under setting [3].

For `COc1ccccc1N=Nc1c(O)n(-c2ccccc2OC)c(=S)n(-c2ccc(C)cc2)c1=O`, the T/C (dose: 25.0 mg/kg/injection, schedule: Q04DX002 (ip), vehicle: saline with Tween-80) is 90 % of control; the T/C (dose: 50.0 mg/kg/injection, schedule: Q04DX002 (ip), vehicle: saline with Tween-80) is 90 % of control; the T/C under setting [1] is 90 % of control.

Turning to `O=C(NCCCl)Nc1ccccc1Cl`, the T/C was 90 % of control (dose: 100.0 mg/kg/injection, schedule: Q01DX001 (ip), vehicle: saline with Tween-80); 94 % of control (dose: 200.0 mg/kg/injection, schedule: Q01DX001 (ip), vehicle: saline with Tween-80); 98 % of control (dose: 400.0 mg/kg/injection, schedule: Q01DX001 (ip), vehicle: saline with Tween-80).
